The record followed here is a melting point compilation (Tetko et al.; mined from patent text by program, amines drawn as free bases though some values may be those of a salt).

As usually defined, the melting point is the temperature, or range, at which the solid turns liquid.

In turn, `CCOC(=O)C1=CC2(CCC1S(=O)(=O)Nc1ccc(F)cc1Cl)CCC1(COCOO1)CO2` (centres undefined) yielded a melting point of 156 to 157 °C.
For `CONC(=N)c1ccc(-c2ccc(-c3ccc(C(=N)NOC)o3)cc2)cc1` the value was 194 to 196 °C; for `Cc1ccccc1Nc1nc(O)c2sccc2n1`, 243 to 245 °C.
For `CC(C)(C)c1cc(CCC(=O)Oc2ccccc2)ccc1O` the value was 106 to 109 °C; for `O=C(NCc1cccnc1)c1cc(-n2cnn(Cc3ccc(F)cc3)c2=O)[nH]n1`, 235 to 236 °C; for `O=C1CCCN1c1cccc(-c2ccnc3c([N+](=O)[O-])cnn23)c1`, 226 to 228 °C.
For `C[C@@H]1[C@@H](N)CN1c1c(F)cc2c(=O)c(C(=O)O)cn3c2c1OC[C@H]3C` the value was 217 to 219 °C; for `OCC1OC(n2c(Cl)nc3cc(Br)c(Cl)cc32)C(O)C1O` (centres undefined), 140 to 142 °C.
Consider `Cc1c(C)c2c(c(C)c1N)C(=O)C(C)(C)O2`, for which the melting point fell in the range of 92 to 93 °C.
For `Cc1cc(C)c(-n2c(C)c(C)c3c(C#N)nc(C)nc32)c(C)c1` the value was 188 to 190 °C; for `O=CN(O)C(CN1CCOCC1)CS(=O)(=O)c1ccccc1Oc1ccc(OC(F)(F)F)cc1` (centres undefined), 161 to 163 °C.
For `COc1cc(Nc2c(C#N)cnc3cc(-c4csc(CN5CCOCC5)c4)c(OC)cc23)c(Cl)cc1Cl` the value was 148 to 150 °C; for `CC(=O)NCC1CN=C(c2ccccc2)c2cc(Cl)ccc2N1` (centres undefined), 240 to 245 °C.
For `COc1cc(N)c2nccc(C=Cc3cccc(C(F)(F)F)c3)c2c1` the value was 124 to 126 °C; for `CCC(C(=O)C(C)C(O)C(C)CCc1c(NC(C)=O)cc(C)c(O)c1C(=O)O)C1OC(CC)(C2CCC(O)(CC)C(C)O2)CC1C` (centres undefined), 189 to 190 °C.
Consider `CC(C)(C)OC(=O)NNC(=O)c1cc(OCc2ccccc2)c(OCc2ccccc2)c(CSc2ccncc2)n1`, for which the melting point was in the range of 181 to 182 °C.
For `COc1cc2c(cc1OC)CCCC(C(=O)N1CCN(C(=S)c3cc(OC)c(OC)c(OC)c3)CC1)=C2` the value was 172 to 173 °C.
For `Cc1cnn(-c2ccc(Cl)cc2Cl)c(=O)c1Br` the value was 108 °C; for `COc1ccc(-c2ccc(Cl)nn2)c(O)c1`, 156 to 157 °C.
Compound `O=c1ccn(CCO)c(C(O)c2cccs2)c1OCc1ccccc1` (centres undefined) had a melting point of 194 to 196 °C.
For `CS(=O)(=O)Nc1cccc(Nc2nc(NC3CCC3)c3nc[nH]c3n2)c1` the value was 142 to 146 °C; for `CC(CO)(Sc1cc2cc(O)ccc2[nH]1)c1ccccc1` (centres undefined), 143 to 145 °C; for `CC(=O)OC1CCC2(C)C(=CCC3C2CCC2(C)C(OC(C)=O)CCC32)C1` (centres undefined), 163 to 165 °C.
Turning to `CCOC(=O)C1=NOC(c2ccccc2)(c2ccccc2)C1`, the melting point fell in the range of 78 to 81 °C.
Turning to `N=C(NO)c1nn(-c2c(Cl)cc(C(F)(F)F)cc2Cl)c(C=O)c1SC(F)(F)F`, the melting point was 72 to 75 °C.
For `CCOP(=O)(CC=CC(=O)O)OCC` the value was 73 to 75 °C; for `NC1=NN(c2cccc(F)c2)CC1`, 146 to 147 °C.
The compound `Cc1cc(CSCCN)sc1CN1CCCCC1` showed a melting point of 81 °C.
`O=C1CC(=O)NC(c2cccc(Cl)c2)=N1`: the melting point fell in the range of 256 to 257 °C.
For `c1ccc2c(c1)CCN(Cc1n[nH]c3ccccc13)C2` the value was 151 to 152 °C.
For `COC(=O)c1ccc(NC(=O)c2cc(C(C)C)c(C(C)C)o2)cc1O` the value was 156 to 157 °C; for `CCOC(=O)c1cnc2scc(C)n12`, 45 °C; for `CONC(=O)C(C)c1ccc2cc(OCc3ccc4ccccc4n3)ccc2c1` (centres undefined), 162 to 164 °C.
For `CN1c2ccccc2C(=O)c2ccccc2C12OCCO2` the value was 192 to 193 °C; for `CNC(=O)c1c(NC(=O)c2cc(C(F)(F)F)nn2-c2ncccc2Cl)ccc2cccnc12`, 219 to 220 °C.
Compound `FC(F)(F)c1cc(Cl)c(-n2cc(I)c(-c3ccccc3)n2)c(Cl)c1` returned a melting point of 88 to 89 °C.
For `C=CCc1cc2c(cc1O)C(C)(C)C(CCO)O2` (centres undefined) the value was 55 to 58 °C.
For `N#Cc1cn(-c2ccc(Cl)c(Cl)c2)c(=O)[nH]c1=O` the value was 206 to 208 °C; for `CCc1nc2c(N)nc(C)c(C)c2n1CCOCCNC(=O)C1CCCCC1`, 170 to 172 °C; for `Nc1cc(Oc2ccc3c(C(=O)Nc4cccc(C(F)(F)F)c4)cccc3c2)ncn1`, 243 to 244 °C.
For `CCn1cc(S(=O)(=O)NC(=O)c2cn3cc(C(F)(F)F)cc(Cl)c3n2)c(Cl)n1` the value was 184 to 185 °C; for `NC(=O)CCc1conc1-c1ccc(Cl)cc1`, 158 to 159 °C; for `CCCC(CC(=O)Nc1ccccc1)(OC)OC`, 88 °C.
`FC(F)(F)c1cccc(N2CCN(Cc3n[nH]c4ccccc34)CC2)c1` came in with a melting point of 78 to 80 °C.
Regarding `CC(=O)C(=Cc1cccc([N+](=O)[O-])c1)C(=O)OCCBr`, the melting point is 94.5 to 95.5 °C.
For `CCCC(=O)C1CCC2C3CCC4CC(O)CCC4(C)C3C(=O)CC12C` (centres undefined) the value was 112 to 113 °C.
For `CCOC(=O)CCc1cc(O)ccc1-c1ccc(-c2cccc(C)c2)c(CO)c1` the value was 57 to 59 °C; for `CC(C)(C)OC(=O)C(Nc1ccccc1)c1cccc(Br)c1` (racemic), 90 °C; for `Cn1cc(C2=C(c3cn(CCC(N)=O)c4ccccc34)C(=O)NC2=O)c2ccccc21`, 243 to 247 °C.
For `CN(Cc1ccc(S(C)=O)cc1)S(=O)(=O)c1cn(S(=O)(=O)N(C)C)c(C#N)n1` (centres undefined) the value was 126 °C.
As for `CCOCC1OC(n2cnc3c(NC4CCCC4)nc(Cl)nc32)C(O)C1O` (centres undefined), the melting point was in the range of 114 to 116 °C.
For `N#Cc1ccc(NC(=O)c2cc3ccccc3cc2O)c(OC(F)(F)F)c1` the value was 248 °C; for `Nc1ncnc2c1ncn2C1OC(C(O)C(=O)NC2CCCC2)C(O)C1O` (centres undefined), 155 to 157 °C; for `CCCc1ccc(O)c2c(=O)cc(-c3nnn[nH]3)oc12`, 242 to 245 °C.
For `Cc1nc2ccccc2n1-c1ccccn1` the value was 121 to 123 °C; for `CCOC(=O)C1=C(C)NC(N=CN(C)C)=C(C(=O)OCC)C1c1cccc(Cl)c1` (centres undefined), 150 °C; for `FC(F)(F)c1ccc(-c2cc(Oc3cccc4sccc34)ncn2)cc1`, 122 °C.
For `CCOCOC1(C(=O)CO)C(CC)CC2C3CC(CC)C4=CC(=O)C=CC4(C)C3C(O)CC21C` (centres undefined) the value was 100 to 102 °C.
As for `COC(=O)C(ON1C(C)(C)CCCC1(C)C)c1ccccc1` (centres undefined), the melting point lay within 83 to 86 °C.
For `C=C(n1c(=O)n(CCCl)c2ccccc21)C(F)(F)F` the value was 158 to 160 °C.
On to `N#Cc1ccc(-c2ccc(Cl)c(OC3SCC(O)C(O)C3O)c2)cn1` (centres undefined), for which the melting point was 192 °C.
`CC(=O)NC(C)(C)c1ccc(CN2CCN(c3cccc(F)n3)CC2)cc1` displayed a melting point of 133 to 134 °C.
For `CCCCCCCCCCC(O)C1CCC(C2CCC(C(O)CCCCCCCCCC(O)CC3=CC(C)OC3=O)O2)O1` (centres undefined) the value was 69 to 70 °C.
For `Cc1ccccc1Nc1nc(N)nc2ccccc12` the value was 273 to 275 °C.
For `O=C1c2nc[nH]c2N(Cc2ccccc2)C2=NCCN12` the value was 262 to 264 °C; for `O=C1c2cc3ccc4c(c3c(-c3ccc5c(c3)OCO5)c2C(=O)N1CCCO)OCO4`, 150 to 152 °C; for `COc1cc(Cc2nc(NCC(C)C)c3c(C)c(C#N)sc3n2)cc(OC)c1OC`, 129 to 131 °C.
In turn, `COC1CCC(C2=C(Cl)C(=O)c3ccccc3C2=O)CC1` (centres undefined) displayed a melting point of 110 to 113 °C.
In turn, `COc1c(F)ccc2c1C(C)(C)CC(O)(C(F)(F)F)C2Nc1cccc2c(=O)n(C)ncc12` (centres undefined) displayed a melting point of 262 to 263 °C.
For `Cc1ccc(-c2ccccc2C(=O)NC(C)(C)C)cc1` the value was 105 to 106 °C; for `O=C1c2ccccc2C(O)N1c1ccc2ccc(F)nc2n1` (centres undefined), 246 °C.
For `CCCCC(=O)N[C@H]1CC[C@H](CCN2CCC(c3cccc4c3CCO4)CC2)CC1` the value was 186 °C.
For `Cc1cccc(-c2nc(CCOc3ccc(CCCC4OC(=O)NC4=O)cc3)c(C)o2)c1` (centres undefined) the value was 149 to 150 °C.
In the case of `CC(C)(O)c1cnn2c(-c3ccc(F)c(-c4ccncc4)c3)cnc2n1`, the melting point lay within 233 to 237 °C.
For `Cc1cc2c(cc1-c1cc(C=CC(=O)O)ccc1F)C(C)(C)CCC2(C)C` the value was 181 to 183 °C; for `Cc1ccccc1N(C)c1nc(=O)c2cccnc2s1`, 208 to 209 °C; for `N#Cc1cc2sccc2nc1Cl`, 222 to 224 °C.
For `Cc1ccc(Cn2ncnc2C(C)NS(=O)(=O)c2ccc(Cl)s2)cc1` (centres undefined) the value was 116 to 117 °C; for `CC(=Cc1ccccc1Cl)C(O)(Cn1cncn1)c1ccc(Cl)cc1` (centres undefined), 141 to 143 °C.
Compound `COc1ccc(CNc2ncccc2C(=O)O)cc1` showed a melting point of 229 °C.
For `Cc1ncccc1COc1ccc(Cn2cc(CCC(=O)O)c(-c3ccccc3)c2)cc1` the value was 158 to 159 °C.
As for `CC(C)(C)OC(=O)N1CCN(c2ccc(C(=O)CSc3ccnc4ccccc34)cc2)CC1`, the melting point fell in the range of 153 to 154 °C.
For `Cc1ccc(CC(C(=O)C(Cc2ccc(C)cc2C)N2C(=O)c3ccccc3C2=O)N2C(=O)c3ccccc3C2=O)c(C)c1` (centres undefined) the value was 112 °C.
`CNc1nc(C)c(-c2ccnc(Nc3ccc(CCO)cc3)n2)s1` showed a melting point of 216 to 218 °C.
For `CCCCOc1cc(CCC(=O)O)ccc1CCCc1ccc(OCC)c(OC)c1` the value was 66 °C.
Take `Cc1c(-c2ccc(F)cc2)c(-c2ccc(S(N)(=O)=O)cc2)c2n1CCC2`: the melting point came out at 120 °C.
For `O=C(Nn1ccnc1)N1CCCCC1COCc1ccccc1Cl` (centres undefined) the value was 91 to 92 °C.
For `O=C(CS)NCC(=O)NCCS` the value was 128 to 130 °C; for `COc1cccc(-c2ccnc3c(C#N)cnn23)c1`, 165 to 166 °C.
